Data from patent publication US20260327191A1, “GSK3a INHIBITORS AND METHODS OF USE THEREOF” (Blueprint Medicines Corporation, priority 2023, published 2026).
Structures can show the parent of a compound that is named as a salt.

How the values were obtained:
[1] = target: T1, human GSK3α (Homo sapiens, UniProt P49840); assay: In vitro enzymatic activity assay, GSK3α; format: biochemical; conditions: 1.0 mM ATP, 1.0 μM peptide substrate, 120 min, 25° C, read-out: Enzyme GSK3α (IC50)
T1 construct: Full length human GSK3α or GSK3B expressed as N-terminal GST fusion proteins; GST (N); purchased Carna Biosciences (Japan); host or cells: baculovirus host

[2] = target: T2, GSK3A (Homo sapiens, UniProt P49840); assay: NanoBRET cellular target engagement assay, Nanoluc-GSK3A in HEK293 cells; format: cell-based; conditions: NanoBRET GSK3α IC50, HEK293 cells, tracer K-8, 2 hours, 37° C
T2 construct: expressed in transfected cells

[3] = target: T3, GSK3B (Homo sapiens, UniProt P49841); assay: NanoBRET cellular target engagement assay, Nanoluc-GSK3B in HEK293 cells; format: cell-based; parameters: expressed in transfected cells; conditions: NanoBRET GSK3β IC50, HEK293 cells, tracer K-8, 2 hours, 37° C
[4] = target: T3, GSK3B; assay: In vitro enzymatic activity assay, GSK3β; format: biochemical; parameters: Full length human GSK3α or GSK3B expressed as N-terminal GST fusion proteins; GST (N); purchased Carna Biosciences (Japan); host or cells: baculovirus host; conditions: 1.0 mM ATP, 1.0 μM peptide substrate, 120 min, 25° C, read-out: Enzyme GSK3β (IC50)

T3 sequence (P49841 whole entry, the tested form may be a part): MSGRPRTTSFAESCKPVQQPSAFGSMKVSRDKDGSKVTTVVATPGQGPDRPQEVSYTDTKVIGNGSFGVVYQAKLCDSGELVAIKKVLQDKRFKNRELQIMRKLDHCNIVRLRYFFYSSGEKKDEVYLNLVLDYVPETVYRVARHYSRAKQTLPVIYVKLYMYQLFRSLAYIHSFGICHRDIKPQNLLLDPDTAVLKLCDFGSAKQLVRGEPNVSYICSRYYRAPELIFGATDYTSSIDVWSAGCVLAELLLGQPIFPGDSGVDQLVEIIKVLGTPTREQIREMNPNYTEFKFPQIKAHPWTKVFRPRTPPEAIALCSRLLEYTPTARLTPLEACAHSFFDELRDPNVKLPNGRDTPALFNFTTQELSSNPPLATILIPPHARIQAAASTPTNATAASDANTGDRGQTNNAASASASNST
T2 sequence (P49840 whole entry): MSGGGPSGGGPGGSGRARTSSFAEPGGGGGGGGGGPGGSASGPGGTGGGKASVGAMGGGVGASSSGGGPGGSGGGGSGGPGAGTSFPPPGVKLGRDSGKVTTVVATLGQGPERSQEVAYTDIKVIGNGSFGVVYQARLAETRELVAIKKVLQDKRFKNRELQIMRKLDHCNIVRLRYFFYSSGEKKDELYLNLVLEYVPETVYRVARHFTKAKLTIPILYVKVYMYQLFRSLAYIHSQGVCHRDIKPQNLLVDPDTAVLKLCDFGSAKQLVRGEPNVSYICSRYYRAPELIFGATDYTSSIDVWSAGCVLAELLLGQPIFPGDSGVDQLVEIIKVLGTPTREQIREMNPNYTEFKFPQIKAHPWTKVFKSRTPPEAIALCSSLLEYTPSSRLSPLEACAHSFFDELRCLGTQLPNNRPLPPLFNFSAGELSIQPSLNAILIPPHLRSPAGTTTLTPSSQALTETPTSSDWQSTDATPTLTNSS
T1 sequence (P49840 whole entry, the tested form may be a part): as the sequence (P49840 whole entry) above

Row | SMILES | IC50 [1] [µM] | IC50 [2] [µM] | IC50 [3] [µM] | IC50 [4] [µM]
1 | CCOc1cc(Cl)c(-n2cnc(N)c(C(=O)Nc3cncc(C(N)C4CC4)c3)c2=O)c(Cl)c1 (single isomer, unassigned) [Example 139, (R)-4-amino-N-(5-(amino(cyclopropyl)methyl)pyridin-3-yl)-1-(2,6-dichloro-4-ethoxyphenyl)-6-oxo-1,6-dihydropyrimidine-5-carboxamide or (S)-4-amino-N-(5-(amino(cyclopropyl)methyl)pyridin-3-yl)-1-(2,6-dichloro-4-ethoxyphenyl)-6-oxo-1,6-dihydropyrimidine-5-carboxamide] | 0.0109 | 0.0051 | 0.281 | 0.56
2 | Cc1cc(C(F)(F)F)cc(C)c1-n1cnc(N)c(C(=O)Nc2cncc([C@H]3CCCCN3)c2)c1=S [Example 162, (R)-4-amino-1-(2,6-dimethyl-4-(trifluoromethyl)phenyl)-N-(5-(piperidin-2-yl)pyridin-3-yl)-6-thioxo-1,6-dihydropyrimidine-5-carboxamide trifluoroacetate] | 0.0056 | 0.0054 | 0.301 | 0.218
3 | CCOc1cc(Cl)c(-n2cnc(N)c(C(=O)Nc3cncc(C(N)CC(F)F)c3)c2=O)c(Cl)c1 (single isomer, unassigned) [Example 143, (R)-4-amino-N-(5-(1-amino-3,3-difluoropropyl)pyridin-3-yl)-1-(2,6-dichloro-4-ethoxyphenyl)-6-oxo-1,6-dihydropyrimidine-5-carboxamide or (S)-4-amino-N-(5-(1-amino-3,3-difluoropropyl)pyridin-3-yl)-1-(2,6-dichloro-4-ethoxyphenyl)-6-oxo-1,6-dihydropyrimidine-5-carboxamide] | 0.0049 | 0.0041 | 0.28 | 0.207
4 | CCNCc1cncc(NC(=O)c2c(N)ncn(-c3c(Cl)cc(-c4ncco4)cc3Cl)c2=O)c1 [Example 201, 4-amino-1-(2,6-dichloro-4-(oxazol-2-yl)phenyl)-N-(5-((ethylamino)methyl)pyridin-3-yl)-6-oxo-1,6-dihydropyrimidine-5-carboxamide] | 0.0137 | 0.0074 | 0.43 | 0.608
5 | CCNCc1cccc(NC(=O)c2c(N)ncn(-c3c(C)cc(C(F)F)cc3Cl)c2=O)c1 (atropisomer, axis not shown) [Example 11, 4-amino-1-((S)-2-chloro-4-(difluoromethyl)-6-methylphenyl)-N-(3-((ethylamino)methyl)phenyl)-6-oxo-1,6-dihydropyrimidine-5-carboxamide] | 0.0144 | 0.0041 | 0.252 | 0.648
6 | CCOc1cc(Cl)c(-n2cnc(N)c(C(=O)Nc3cncc(C(N)COC)c3)c2=O)c(Cl)c1 (single isomer, unassigned) [Example 134, (R)-4-amino-N-(5-(1-amino-2-methoxyethyl)pyridin-3-yl)-1-(2,6-dichloro-4-ethoxyphenyl)-6-oxo-1,6-dihydropyrimidine-5-carboxamide or (S)-4-amino-N-(5-(1-amino-2-methoxyethyl)pyridin-3-yl)-1-(2,6-dichloro-4-ethoxyphenyl)-6-oxo-1,6-dihydropyrimidine-5-carboxamide] | 0.0034 | 0.0032 | 0.204 | 0.212
7 | COc1cc(Cl)c(-n2cnc(N)c(C(=O)Nc3cncc(C4COCCN4)c3)c2=O)c(Cl)c1 (single isomer, unassigned) [Example 212, (S)-4-amino-1-(2,6-dichloro-4-methoxyphenyl)-N-(5-(morpholin-3-yl)pyridin-3-yl)-6-oxo-1,6-dihydropyrimidine-5-carboxamide or (R)-4-amino-1-(2,6-dichloro-4-methoxyphenyl)-N-(5-(morpholin-3-yl)pyridin-3-yl)-6-oxo-1,6-dihydropyrimidine-5-carboxamide] | 0.0047 | 0.0076 | 0.52 | 0.272
8 | COc1cc(Cl)c(-n2cnc(N)c(C(=O)Nc3cncc([C@@H]4CCN4)c3)c2=O)c(Cl)c1 (single isomer, unassigned) [Example 213, (S)-4-amino-N-(5-(azetidin-2-yl)pyridin-3-yl)-1-(2,6-dichloro-4-methoxyphenyl)-6-oxo-1,6-dihydropyrimidine-5-carboxamide or (R)-4-amino-N-(5-(azetidin-2-yl)pyridin-3-yl)-1-(2,6-dichloro-4-methoxyphenyl)-6-oxo-1,6-dihydropyrimidine-5-carboxamide] | 0.0332 | 0.0078 | 0.992 | 1.76
9 | C[C@@H](N)c1cncc(NC(=O)c2c(N)ncn(-c3c(Cl)cc(C(F)F)cc3Cl)c2=O)c1 (single isomer, unassigned) [Example 57, (R)-4-amino-N-(5-(1-aminoethyl)pyridin-3-yl)-1-(2,6-dichloro-4-(difluoromethyl)phenyl)-6-oxo-1,6-dihydropyrimidine-5-carboxamide or (S)-4-amino-N-(5-(1-aminoethyl)pyridin-3-yl)-1-(2,6-dichloro-4-(difluoromethyl)phenyl)-6-oxo-1,6-dihydropyrimidine-5-carboxamide] | 0.0079 | 0.0054 | 0.277 | 0.382
10 | COc1cc(Cl)c(-n2cnc(N)c(C(=O)Nc3cncc(C4(N)CCCC4)c3)c2=O)c(Cl)c1 [Example 21, 4-amino-N-(5-(1-aminocyclopentyl)pyridin-3-yl)-1-(2,6-dichloro-4-methoxyphenyl)-6-oxo-1,6-dihydropyrimidine-5-carboxamide] | 0.0032 | 0.0026 | 0.145 | 0.217
11 | CCC(N)c1cncc(NC(=O)c2c(N)ncn(-c3c(C)cc(C(F)F)cc3C)c2=O)c1 (single isomer, unassigned) [Example 128, (R)-4-amino-N-(5-(1-aminopropyl)pyridin-3-yl)-1-(4-(difluoromethyl)-2,6-dimethylphenyl)-6-oxo-1,6-dihydropyrimidine-5-carboxamide or (S)-4-amino-N-(5-(1-aminopropyl)pyridin-3-yl)-1-(4-(difluoromethyl)-2,6-dimethylphenyl)-6-oxo-1,6-dihydropyrimidine-5-carboxamide] | 0.019 | 0.0077 | 0.546 | 1.18
12 | Cc1cc(C(F)F)cc(C)c1-n1cnc(N)c(C(=O)Nc2cncc(C3CCCC(C)N3)c2)c1=O (single isomer, unassigned) [Example 107] | 0.01 | 0.0039 | 0.434 | 0.671
13 | CCOCC(N)c1cncc(NC(=O)c2c(N)ncn(-c3c(Cl)cc(OCC)cc3Cl)c2=O)c1 (single isomer, unassigned) [Example 140, (R)-4-amino-N-(5-(1-amino-2-ethoxyethyl)pyridin-3-yl)-1-(2,6-dichloro-4-ethoxyphenyl)-6-oxo-1,6-dihydropyrimidine-5-carboxamide or (S)-4-amino-N-(5-(1-amino-2-ethoxyethyl)pyridin-3-yl)-1-(2,6-dichloro-4-ethoxyphenyl)-6-oxo-1,6-dihydropyrimidine-5-carboxamide] | 0.0242 | 0.0092 | 0.616 | 1.24
14 | CCCOc1cc(C)c(-n2cnc(N)c(C(=O)Nc3cncc([C@H]4CCCCN4)c3)c2=O)c(C)c1 [Example 125, (R)-4-amino-1-(2,6-dimethyl-4-propoxyphenyl)-6-oxo-N-(5-(piperidin-2-yl)pyridin-3-yl)-1,6-dihydropyrimidine-5-carboxamide] | 0.0049 | 0.0027 | 0.163 | 0.296
15 | CCNCc1cncc(NC(=O)c2c(N)ncn(-c3c(Cl)cc(CC(F)(F)F)cc3Cl)c2=O)c1 [Example 202, 4-amino-1-(2,6-dichloro-4-(2,2,2-trifluoroethyl)phenyl)-N-(5-((ethylamino)methyl)pyridin-3-yl)-6-oxo-1,6-dihydropyrimidine-5-carboxamide] | 0.0087 | 0.0059 | 0.385 | 0.432
16 | CCCOc1cc(C)c(-n2cnc(N)c(C(=O)Nc3cncc(C(C)N)c3)c2=O)c(C)c1 (single isomer, unassigned) [Example 126, (R)-4-amino-N-(5-(1-aminoethyl)pyridin-3-yl)-1-(2,6-dimethyl-4-propoxyphenyl)-6-oxo-1,6-dihydropyrimidine-5-carboxamide or (S)-4-amino-N-(5-(1-aminoethyl)pyridin-3-yl)-1-(2,6-dimethyl-4-propoxyphenyl)-6-oxo-1,6-dihydropyrimidine-5-carboxamide] | 0.0147 | 0.0079 | 0.506 | 0.702
17 | Cc1cc([C@@H](C)F)cc(C)c1-n1cnc(N)c(C(=O)Nc2cncc([C@H]3CCCCN3)c2)c1=O (single isomer, unassigned) [Example 184, 4-amino-1-(4-((R)-1-fluoroethyl)-2,6-dimethylphenyl)-6-oxo-N-(5-((R)-piperidin-2-yl)pyridin-3-yl)-1,6-dihydropyrimidine-5-carboxamide or 4-amino-1-(4-((S)-1-fluoroethyl)-2,6-dimethylphenyl)-6-oxo-N-(5-((R)-piperidin-2-yl)pyridin-3-yl)-1,6-dihydropyrimidine-5-carboxamide] | 0.0039 | 0.0021 | 0.167 | 0.175
